This is an account of results in US5846978A, “HIV protease inhibitors useful for the treatment of AIDS” (Merck & Co., Inc., priority 1997, dated 1998).

Test [1] deals with T1, HIV protease (Human immunodeficiency virus type 1 group M subtype B, UniProt P12497).
T1 construct: made in house; host or cells: Escherichia coli
The test can be described thus: Assay for Inhibition of Microbial Expressed HIV Protease (peptide substrate cleavage, HPLC). It counts as biochemical. The following applies: for IC50 / % inhibition: pH 5.5, 30° C., 1 hour; for % inhibition: concentration not given. On the procedure: Assay for Inhibition of Microbial Expressed HIV Protease
Inhibition studies of the reaction of the protease expressed in Eschericia coli with a peptide substrate [Val-Ser-Gln-Asn-(betanapthyl)Ala-Pro-Ile-Val, 0.5 mg/mL at the time the reaction is initiated] were in 50 mM Na acetate, pH 5.5, at 30° C. for 1 hour. Various concentrations of inhibitor in 1.0 μl DMSO were added to 25 μl of the peptide solution in water. The reaction is initiated by the addition of 15 μl of 0.33 nM protease (0.11 ng) in a solution of 0.133M Na acetate pH 5.5 and 0.1% bovine serum albumin. The reaction was quenched with 160 μl of 5% phosphoric acid. Products of the reaction were separated by HPLC (VYDAC wide pore 5 cm C-18 reverse phase, acetonitrile gradient, 0.1% phosphoric acid). The extent of inhibition of the reaction was determined from the peak heights of the products. […] [drawing 61] 5(RS)-((4')-2"-furanyl)methylpheny-9(RS)-hydroxy-1(RS)-hydroxy-methyl-3-(2' -methylpropyl-3-azabicyclo[3.3.1]nonan-7-one (Compound 10, Table 1) [drawing 62]

In test [2] the target is T1, HIV protease. Described as above. It is filed as biochemical. The conditions noted are these: concentration printed as (8.8) μM (column head 'Enzyme concentration (μM)'); pH 5.5, 30° C., 1 hour.

As to `O=C1CC2(CO)CN(CC3CC3)CC(Cc3ccccc3)(C1)C2O` (stereo not shown) [Compound 2], the inhibition (usually the relative decrease from the control value, in per cent) at 250 µM against HIV protease [1] (pH 5.5) worked out at 56%.
Same read-out and setting: for `CC(C)(C)CN1CC2(CO)CC(=O)CC(Cc3ccccc3)(C1)C2O` (stereo not shown) [Compound 3] the value was 69%; for `O=C1CC2(CO)CN(Cc3ccccc3)CC(Cc3ccccc3)(C1)C2O` (stereo not shown) [Compound 4], 82%.
For the molecule `CC(C)CN1CC2(CO)CC(=O)CC(Cc3ccccc3)(C1)C2O` (stereo not shown) [Compound 5], on HIV protease [1] (pH 5.5), the inhibition at 250 µM is 63%.
`CC(C)CN1CC2(CO)CC(=O)CC(Cc3ccc(Br)cc3)(C1)C2O` (stereo not shown) [Compound 6] registered an inhibition at 250 µM at HIV protease [1] (pH 5.5) of 71%. Also, half-maximal inhibition on HIV protease [1] (IC50) was put at 244 µM.
For `COc1ccccc1-c1ccc(CC23CC(=O)CC(CO)(CN(CC(C)C)C2)C3O)cc1` (stereo not shown) [Compound 7], on HIV protease [1] (pH 5.5), the inhibition at 100 µM was 56%.
`CC(C)CCN1CC2(CO)CC(=O)CC(Cc3ccccc3)(C1)C2O` (stereo not shown) [Compound 8]: the % inhibition (usually how much of the control response was suppressed) on HIV protease [1] came out at 68%.
As for `O=C1CC2(CO)CN(CC3CCCC3)CC(Cc3ccccc3)(C1)C2O` (stereo not shown) [Compound 9], the IC50 (commonly the concentration needed to halve the response being measured) at HIV protease [1] turned out to be 89 µM.
`CC(C)CN1CC2(CO)CC(=O)CC(Cc3ccc(-c4ccco4)cc3)(C1)C2O` (stereo not shown) [Compound 10] displayed an inhibition at 100 µM against HIV protease [1] (pH 5.5) of 62%.
Molecule `CC(C)(C)N1CC2(CO)CC(=O)CC(Cc3ccccc3Br)(C1)C2O` (stereo not shown) [Compound 11] came in with an inhibition at 100 µM at HIV protease [1] (pH 5.5) of 76%. Moreover, the IC50 on HIV protease [1] is 30 µM.
The molecule `CC(C)(C)N1CC2(CO)CC(=O)CC(Cc3ccc4ccccc4c3)(C1)C2O` (stereo not shown) [Compound 12] registered an inhibition at 100 µM against HIV protease [1] (pH 5.5) of 43%.
`CC(C)C[C@@H](CO)CN1CC2(CO)CC(=O)CC(Cc3ccccc3)(C1)C2O` (stereo partly shown) [Compound 13]: at HIV protease [1], the “% inhibition” value is given as 75% and the IC50 was 44 µM.
`CC(C)C[C@H](CO)CN1CC2(CO)CC(=O)CC(Cc3ccccc3)(C1)C2O` (stereo partly shown) [Compound 14]: the “% inhibition” value on HIV protease [1] worked out at 62%.
The molecule `CCCCC(O)C12CC(=O)CC(Cc3ccccc3)(CN(CC(C)C)C1)C2O` (stereo not shown) [Compound 15] registered an inhibition at 100 µM against HIV protease [1] (pH 5.5) of 73%. The IC50 against HIV protease [1] turned out to be 14 µM.
On HIV protease [1], `CC(C)CN1CC2(Cc3ccccc3)CC(=O)CC(C(O)Cc3ccccc3)(C1)C2O` (stereo not drawn) [Compound 16, 5(RS)-methylphenyl-9(RS)-hydroxy-1(RS)-((1'-hydroxy)-2'-phenyl)-ethyl-3-(2"-methyl)propyl-3-azabicyclo[3.3.1] nonan-7-one] showed an IC50 of 50 µM. Further, the “% inhibition” value at HIV protease [2] worked out at 82%.
On to `O=C1CC2(Cc3ccccc3)CN(Cc3ccccc3)CC(C(O)C#Cc3ccccc3)(C1)C2O` (stereo not shown) [Compound 17], for which the inhibition at 50 µM at HIV protease [1] (pH 5.5) amounted to 52%.
Same read-out and setting: for `O=C1CC2(Cc3ccccc3)CN(Cc3ccccc3)CC(C(O)Cc3ccccc3)(C1)C2O` (stereo not drawn) [Compound 18, 5(RS)-methylpheny-9(RS)-hydroxy-1(RS)-((1'-hydroxy)-2'-phenyl)-ethyl-3-benzyl-3-azabicyclo[3.3.1]nonan-7-one] the value was 63%; for `CC(C)(C)N1CC2(Cc3ccccc3)CC(=O)CC(C(O)Cc3ccccc3)(C1)C2O` (stereo not shown) [Compound 19], 44%.
On HIV protease [1] (pH 5.5), `CC(C)CN1CC2(Cc3ccccc3)CC(=O)CC(C(O)Cc3ccccc3N)(C1)C2O` (stereo not shown) [Compound 20] came in with an inhibition at 100 µM of 93%. Half-maximal inhibition at HIV protease [1] (IC50) was put at 1.6 µM.
Take `O=C1CC2(Cc3ccccc3)CN(CC3CCCC3)CC(C(O)Cc3ccccc3)(C1)C2O` (stereo not shown) [Compound 21]: the inhibition at 25 µM at HIV protease [1] (pH 5.5) is 80%. On HIV protease [1], this molecule came in with an IC50 of 1.8 µM.
On HIV protease [1] (pH 5.5), `O=C1CC2(Cc3ccccc3)CN(CC3CCCO3)CC(C(O)Cc3ccccc3)(C1)C2O` (stereo not shown) [Compound 22] registered an inhibition at 100 µM of 84%. This molecule also yielded an IC50 on HIV protease [1] of 10.4 µM.
For `O=C1CC2(Cc3ccccc3)CN(Cc3ccccc3)CC(C(O)CN3CCCCS3(=O)=O)(C1)C2O` (stereo not shown) [Compound 23], in that order: 69% and 29 µM.
